This is an account of results in the supplement of paper PMC11061612.

Assay in all cases: combination Emax (second highest fraction inhibited in the dose matrix, 72 h); higher = more inhibition; extreme values may be limits of the assay
The test system of test [1] is CAL-78 (Chondrosarcoma). The essentials: (§1)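 Cell lines grown in DMEM/F12 or RPMI with 10% FBS were plated in 1536-well plates and held 24 hours at 37°C, 5% CO2 before 72 hours of exposure to two-drug dose matrices, with DMSO typically at 0.2%. CellTiter-Glo 2.0 luminescence gave viability, which was converted to inhibition. Vehicle wells were set to 0 and blank wells to 1. Combination Emax is the second-highest inhibition in the matrix, and Bliss excess is the observed combination effect minus the expected EA + EB − EA·EB, where EA and EB are the single-agent effects.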

For test [2], the system named is COR-L23 (Non-Small Cell Lung Carcinoma). The essentials:
as §1

The test system of test [3] is COR-L95 (Small Cell Lung Carcinoma). The essentials: as §1
The test system of test [4] is CTV-1 (T-Lymphoblastic Leukemia). The essentials:
as §1

The test system of test [5] is DB (B-Cell Non-Hodgkin's Lymphoma). The essentials: as §1
Test [6] has as its system DOV13 (Ovarian Carcinoma). The method, boiled down:
as §1

In test [7] the test system is DSH1 (Bladder Carcinoma). The method, boiled down: as §1
The test system of test [8] is EM-2 (Chronic Myelogenous Leukemia). The essentials: as §1
Test [9] relates to HCC2157 (Breast Carcinoma). The method, boiled down:
as §1

Test [10] deals with J82 (Bladder Carcinoma). The method, boiled down: as §1
For test [11], the system named is KARPAS-1106P (B-Cell Non-Hodgkin's Lymphoma). The method, boiled down:
as §1

Test [12] deals with LS-513 (Colorectal Carcinoma). The method, boiled down: as §1
Test [13] relates to MDA-MB-157 (Breast Carcinoma). The method, boiled down: as §1
The test system of test [14] is MFH-ino (Other Solid Carcinomas). The essentials:
as §1

Test [15] relates to NCI-H2595 (Mesothelioma). The method, boiled down: as §1
Test [16] relates to OCI-AML2 (Acute Myeloid Leukemia). The essentials: as §1
In test [17] the test system is SK-N-FI (Neuroblastoma). The essentials: as §1
Test [18] deals with SW1990 (Pancreatic Carcinoma). The method, boiled down:
as §1

In test [19] the test system is TE-5 (Esophageal Squamous Cell Carcinoma). The essentials: as §1
In test [20] the test system is TGBC24TKB (Biliary Tract Carcinoma). The essentials: as §1

SMILES strings stand for the structures.

For the molecule `C[C@@H](c1ccc2nccn2c1)n1nnc2ncc(-c3cnn(C)c3)nc21` [Savolitinib] + CC1(C)CCC(CN2CCN(c3ccc(C(=O)NS(=O)(=O)c4ccc(NCC5CCOCC5)c([N+](=O)[O-])c4)c(Oc4cnc5[nH]ccc5c4)c3)CC2)=C(c2ccc(Cl)cc2)C1 [Venetoclax] (first compound max 1 µM, 7x7, partner max 1 µM), the “combination Emax” value in [1] is 0.187; in test [2], 0.111; in test [3], 0.586; in [4] it was 0.091; in [5] it was 0.741; in test [6], 0.143. In addition, the “combination Emax” value was found to be 0.286 in test [7]; 0.132 in test [8]; 0.186 in test [9]; 0.145 in test [10]; 0.2 in [11]; 0.0791 in [12]. For the same molecule, the “combination Emax” value in test [13] is 0.11; in test [14], 0.171; in test [15], 0.227; in test [16] it was 0.93; in [17], 0.192; in test [18], 0.225. Also, the “combination Emax” value in test [19] was 0.123; in [20] it was 0.215.

In the case of `COc1cc2c(cc1OCCCCCOc1cc3c(cc1OC)C(=O)N1C=C(C)C[C@H]1C=N3)N=C[C@@H]1CC(C)=CN1C2=O` [SG3199] + O=C(c1cc(Cc2n[nH]c(=O)c3ccccc23)ccc1F)N1CCN(C(=O)C2CC2)CC1 [Olaparib] (first compound max 0.001 µM, 7x7, partner max 10 µM), the “combination Emax” value in [1] came to 0.268; in [2] it was 0.221; in test [3] it was 0.431; in [4] it was 0.127; in test [5], 0.347; in test [6], 0.249. Further, the “combination Emax” value in [7] stood at 0.25; in [8], 0.292; in test [9], 0.264; in test [10], 0.187; in [11] it was 0.467; in test [12] it was 0.155. The “combination Emax” value in [13] is 0.0754; in [14], 0.134; in test [15], 0.0944; in [16], 0.747; in test [17], 0.0819; in test [18], 0.125. Further, the “combination Emax” value in test [19] turned out to be 0.0521; in test [20], 0.126.

Consider `Cc1c2c(nn1C)CSCc1cc(n(C)n1)CSc1cc(c3ccccc3c1)OCCCc1c(C(=O)O)n(C)c3c-2c(Cl)ccc13` [AZD5991] + C=CCn1c(=O)c2cnc(Nc3ccc(N4CCN(C)CC4)cc3)nc2n1-c1cccc(C(C)(C)O)n1 [AZD1775] (first compound max 1 µM, partner max 1 µM), for which the “combination Emax” value was 0.853 in test [1]; 0.605 in test [2]; 0.757 in test [3]; 0.925 in test [4]; 0.999 in test [5]; 0.829 in test [6]. In addition, the “combination Emax” value in test [7] was determined as 0.791; in test [8], 0.983; in test [9], 0.979; in test [10], 0.314; in test [11] it was 0.997; in test [12], 0.871. For the same molecule, the “combination Emax” value in [13] was 0.958; in test [14], 0.31; in test [15] it was 0.282; in test [16], 1; in test [17] it was 0.744; in test [18], 0.537. Moreover, the “combination Emax” value amounted to 0.536 in test [19] and 0.672 in [20].

`CN(CCO)CC[C@H](CSc1ccccc1)Nc1ccc(S(=O)(=O)NC(=O)c2ccc(N3CCC([C@@H](O)c4ccccc4-c4ccc(Cl)cc4)CC3)cc2)cc1S(=O)(=O)C(F)(F)F` [AZD4320] + C[C@@H]1COCCN1C2=NC(=NC(=C2)C3(CC3)[S@](=N)(=O)C)C4=C5C=CNC5=NC=C4 [AZD6738] (first compound max 1 µM, 7x7, partner max 10 µM): the “combination Emax” value in [1] stood at 0.861; in test [2] it was 0.621; in [3], 1; in [4], 0.822; in [5], 0.959; in test [6], 0.974. Besides, the “combination Emax” value in test [7] worked out at 0.94; in test [8], 0.988; in [9], 0.979; in [10], 0.524; in test [11], 0.849; in test [12], 0.821. Also, the “combination Emax” value in [13] is 0.94; in [14], 0.51; in test [15] it was 0.214; in test [16] it was 1; in [17], 0.765; in test [18], 0.845. The “combination Emax” value stood at 0.77 in [19] and 0.891 in test [20].

As for `CN(CCO)CC[C@H](CSc1ccccc1)Nc1ccc(S(=O)(=O)NC(=O)c2ccc(N3CCC([C@@H](O)c4ccccc4-c4ccc(Cl)cc4)CC3)cc2)cc1S(=O)(=O)C(F)(F)F` [AZD4320] + CN(C)CCCOc1ccc(-c2ccc3ncc4c(c3c2)n(C2CCOCC2)c(=O)n4C)cn1 [AZD0156] (first compound max 1 µM, 7x7, partner max 1 µM), the “combination Emax” value in test [2] stood at 0.0875; in test [3], 1; in test [4] it was 0.211; in [5], 0.933; in test [6], 0.731; in test [7], 0.369. In addition, the “combination Emax” value in test [8] stood at 0.968; in test [9] it was 0.936; in test [10], 0.122; in test [11], 0.146; in [12] it was 0.2; in [13] it was 0.0946. The “combination Emax” value was 0.102 in [14]; 0.12 in test [15]; 1 in test [16]; 0.17 in test [17]; 0.079 in [18]; 0.43 in test [19]. The “combination Emax” value in test [20] was 0.598.
